The NIST ThermoML archive (doi:10.1016/j.jct.2009.06.008)
Where “and” joins values, the source holds several entries; their conditions need not be identical. Equal entries are not always repeated.

Settings: Crystal, Calculated from knudsen effusion weight loss

O=[N+]([O-])c1ccc(Br)cc1 [1-bromo-4-nitrobenzene]
Settings	vapor or sublimation pressure
289.15 K	0.000103 kPa and 0.000101 kPa and 9.9e-05 kPa
291.12 K	0.000122 kPa and 0.000119 kPa and 0.00012 kPa
293.14 K	0.00017 kPa and 0.000165 kPa and 0.000161 kPa
295.15 K	0.000209 kPa and 0.000202 kPa
297.14 K	0.000255 kPa and 0.000248 kPa
299.15 K	0.000332 kPa and 0.000337 kPa and 0.000333 kPa
301.13 K	0.000427 kPa and 0.00041 kPa and 0.000409 kPa
303.14 K	0.000526 kPa and 0.000537 kPa and 0.00052 kPa
305.14 K	0.000644 kPa and 0.000653 kPa and 0.000624 kPa
307.14 K	0.0008 kPa and 0.000809 kPa and 0.000788 kPa
309.15 K	0.00105 kPa and 0.001036 kPa and 0.00101 kPa

O=[N+]([O-])c1ccccc1Br [1-bromo-2-nitrobenzene]
Settings	vapor or sublimation pressure
275.15 K	9.5e-05 kPa and 9.4e-05 kPa
277.15 K	0.000124 kPa and 0.000123 kPa
279.16 K	0.000164 kPa and 0.000165 kPa
281.17 K	0.00021 kPa and 0.000212 kPa and 0.000208 kPa
283.17 K	0.000279 kPa and 0.00028 kPa and 0.000277 kPa
285.17 K	0.000351 kPa and 0.000353 kPa and 0.00035 kPa
287.21 K	0.000451 kPa and 0.000459 kPa and 0.000448 kPa
289.17 K	0.000581 kPa and 0.000592 kPa and 0.000594 kPa
291.14 K	0.000733 kPa and 0.000729 kPa and 0.000735 kPa
293.14 K	0.000913 kPa and 0.000939 kPa and 0.000925 kPa
295.16 K	0.001204 kPa and 0.00121 kPa and 0.001218 kPa

O=[N+]([O-])c1cccc(Br)c1 [1-bromo-3-nitrobenzene]
Settings	vapor or sublimation pressure
279.57 K	0.000143 kPa and 0.000142 kPa and 0.000141 kPa
281.21 K	0.000184 kPa and 0.000183 kPa and 0.000181 kPa
283.14 K	0.000238 kPa and 0.000237 kPa and 0.000236 kPa
285.16 K	0.000299 kPa and 0.000294 kPa and 0.000301 kPa
287.19 K	0.000398 kPa and 0.000385 kPa and 0.000381 kPa
289.39 K	0.000507 kPa and 0.000506 kPa and 0.000496 kPa
291.16 K	0.000649 kPa and 0.00065 kPa and 0.000635 kPa
293.15 K	0.000817 kPa and 0.000815 kPa and 0.00079 kPa
295.17 K	0.001067 kPa and 0.001054 kPa and 0.001033 kPa
